The target of the test is T1, PAR4 (Homo sapiens, UniProt Q96RI0).
T1 construct: 60 μL of washed platelets (Tyrodes buffer containing 0.1% BSA); endogenous in cells
T1 sequence (Q96RI0 18-385): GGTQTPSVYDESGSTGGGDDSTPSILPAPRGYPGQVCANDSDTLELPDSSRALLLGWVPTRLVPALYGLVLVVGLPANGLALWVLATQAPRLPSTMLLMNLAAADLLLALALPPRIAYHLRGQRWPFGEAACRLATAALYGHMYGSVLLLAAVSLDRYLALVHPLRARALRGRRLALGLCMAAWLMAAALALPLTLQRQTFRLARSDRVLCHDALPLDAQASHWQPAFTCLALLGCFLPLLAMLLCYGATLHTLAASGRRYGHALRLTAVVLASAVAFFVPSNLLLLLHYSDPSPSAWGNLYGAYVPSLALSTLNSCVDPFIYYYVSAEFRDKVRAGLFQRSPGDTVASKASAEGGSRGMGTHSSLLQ
Description: PAC-1 Binding assay (antagonism of PAR4 mediated αIIBβ3 activation, flow cytometry). It is filed as cell-based. The note with it: for % Max PAC-1: washed platelets, 100% response = DMSO treated control stimulated with 200 μM PAR4-AP, mean values; for IC50: washed platelets stimulated with PAR4-AP, PAC-1 binding, sigmoidal dose response, variable slope. The protocol:
PAC-1 Binding assay: 60 μL of washed platelets (Tyrodes buffer containing 0.1% BSA) at a concentration of 0.15×10^8 platelets/mL were added to 5 mL round bottom polystyrene tubes (BD, Franklin Lakes, N.J.). FITC conjugated PAC-1 (BD Biosciences, San Jose, Calif.) antibody was diluted (to the manufacturers recommended concentration) in Tyrode's buffer containing 0.1% BSA. 40 μL of diluted antibody was added to the platelets and allowed to incubate for 5 minutes. Platelets were pre-treated with indicated concentrations of antagonist or DMSO control for 5 minutes followed by addition of PAR1-AP (GL Biochem, Shanghai, China) or PAR4-AP for 10 minutes. […] The final DMSO concentration was 0.5%. Platelets were stored up to 18 hours at 4° C. before flow cytometric analysis. Analysis was carried out on a BD FACS Canto II (Franklin Lakes, N.J.). Fluorescent intensity was determined for 100,000 events within the platelet gate. Data was collected and analyzed via FACS DiVa software. Flow cytometric data analysis was conducted by the following method. The DMSO-vehicle treated control was subtracted from each data point. 100% response for PAR4-AP was determined for each individual as the DMSO treated control stimulated with either 200 μM PAR4-AP, or 20 μM PAR1-AP. Data was plotted in GraphPad PRISM v.5.0. For compounds with a notable reduction in PAC-1 binding response, dose response curves and IC50 values were generated using the inhibitory sigmoidal dose response ‘variable slope’ parameter. PAR4 results are plotted as mean values.

`COc1ccc(-c2c(CO)n(Cc3cccc(F)c3)c3ccc(OC(F)(F)F)cc23)cn1` [Example B1]: the “% Max PAC-1” value stood at 80.6%. As for `COc1ccc(-c2c(CO)n(Cc3ccc(F)cc3F)c3ccc(OC(F)(F)F)cc23)cn1` [Example B2], the IC50 was determined as 823 nM and the “% Max PAC-1” value is given as 19.7%. With `COc1ccc(-c2c(CO)n(Cc3cccc(C(F)(F)F)c3)c3ccc(OC(F)(F)F)cc23)cn1` [Example B3], the “% Max PAC-1” value came to 59.7%. On the same count and under the same terms, as for `COc1ccc(-c2c(CO)n(Cc3ccccc3)c3ccc(OC(F)(F)F)cc23)cn1` [Example B4], the figure is 53.4%.

Regarding `COc1ccc(-c2c(CO)n(Cc3cc(F)cc(F)c3)c3ccc(OC(F)(F)F)cc23)cn1` [Example B5], the “% Max PAC-1” value was 36.5%.

For the molecule `COc1ccc(-c2c(CO)n(Cc3ccccc3F)c3ccc(OC(F)(F)F)cc23)cn1` [Example B6], the “% Max PAC-1” value stood at 89.0%. Take `COc1ccc(-c2c(CO)n(Cc3cccc(Br)c3)c3ccc(OC(F)(F)F)cc23)cn1` [Example B7]: the “% Max PAC-1” value is on record as 27.2%.

With `COc1ccc(-c2c(CO)n(C)c3ccc(OC(F)(F)F)cc23)cn1` [Example B8], the “% Max PAC-1” value came out at 93.9%.

`COc1cc(Cn2c(CO)c(-c3ccc(OC)nc3)c3cc(OC(F)(F)F)ccc32)cc(OC)c1` [Example B10]: the “% Max PAC-1” value came to 110.6%. On the same count and under the same terms, next, `COc1cccc(Cn2c(CO)c(-c3ccc(OC)nc3)c3cc(OC(F)(F)F)ccc32)c1` [Example B11]: 40.9%; `COc1ccc(-c2c(CO)n(Cc3cccc(Cl)c3)c3ccc(OC(F)(F)F)cc23)cn1` [Example B12]: 27.8%; `COc1cccc(Cn2c(CO)c(-c3ccc(OC)nc3)c3cc(C(F)(F)F)ccc32)c1` [Example B13, (1-(3-methoxybenzyl)-3-(6-methoxypyridin-3-yl)-5-(trifluoromethyl)-1H-indol-2-yl)methanol]: 108.5%. On the same count and under the same terms, next, `COc1ccc(-c2c(CO)n(Cc3cccc(Br)c3)c3ccc(S(C)(=O)=O)cc23)cn1` [Example B21]: 74.3%; `COc1ccc(-c2c(CO)n(Cc3ccccn3)c3ccc(C#N)cc23)cn1` [Example B26]: 113.7%. Turning to `COc1ccc(-c2c(CO)n(Cc3ccccn3)c3ccc(S(C)(=O)=O)cc23)cn1` [Example B27], the “% Max PAC-1” value is 100.1%. The same measure, in the same setting: next, `COc1ccc(-c2c(CO)n(Cc3cccc(Br)c3)c3ccc(C#N)cc23)cn1` [Example B31]: 109.1%. As to `COc1ccc(-c2c(CO)n(Cc3ccc(F)cc3F)c3ccc(C#N)cc23)cn1` [Example B33], the “% Max PAC-1” value stood at 105.0%. Same read-out and setting: next, `COc1ccc(-c2c(CO)n(Cc3ccc(C#N)cc3F)c3ccc(C#N)cc23)cn1` [Example B36]: 108.8%; `COc1ccc(-c2c(CO)n(Cc3ccccn3)c3cc4c(cc23)OCO4)cn1` [Example B38]: 107.2%. Still for that read-out and setting: as for `COc1ccc(-c2c(CO)n(Cc3cccc(Cl)c3)c3cc4c(cc23)OCO4)cn1` [Example B39], the figure is 100.1%; as for `COc1ccc(-c2c(CO)n(Cc3ccc(C#N)cc3F)c3cc4c(cc23)OCO4)cn1` [Example B40], 98.6%; as for `COc1ccc(-c2c(CO)n(Cc3cccc(Br)c3)c3cc4c(cc23)OCO4)cn1` [Example B44], 96.5%.

With `COc1cccc(Cn2c(CO)c(-c3ccc(OC)nc3)c3cc4c(cc32)OCO4)c1` [Example B45], the “% Max PAC-1” value amounted to 129.1%. The same measure, in the same setting: next, `OCc1c(-c2ccncc2)c2cc(OC(F)(F)F)ccc2n1Cc1ccccc1Cl` [Example B47]: 101.7%. Take `CSc1ncc(-c2c(CO)n(Cc3ccc(F)cc3F)c3ccc(OC(F)(F)F)cc23)cn1` [Example B48]: the IC50 was 1980 nM and the “% Max PAC-1” value is 14.5%. As for `OCc1c(-c2cncnc2)c2cc(OC(F)(F)F)ccc2n1Cc1ccc(F)cc1F` [Example B49], the “% Max PAC-1” value is 96.0%.

With `CCOc1ncc(-c2c(CO)n(Cc3ccc(F)cc3F)c3ccc(OC(F)(F)F)cc23)cn1` [Example B51], the “% Max PAC-1” value was determined as 48.5%. Take `CCOc1ncc(-c2c(CO)n(Cc3ccccc3Cl)c3ccc(OC(F)(F)F)cc23)cn1` [Example B52]: the “% Max PAC-1” value turned out to be 24.0%.

Turning to `OCc1c(-c2ccc(F)nc2)c2cc(OC(F)(F)F)ccc2n1Cc1ccc(F)cc1F` [Example B53], the “% Max PAC-1” value is on record as 48.2%. For `COc1ncc(-c2c(CO)n(Cc3ccccc3Cl)c3ccc(OC(F)(F)F)cc23)cn1` [Example B54], the IC50 turned out to be 2900 nM and the “% Max PAC-1” value is 2.01%. Take `OCc1c(-c2cncnc2)c2cc(OC(F)(F)F)ccc2n1Cc1ccccc1Cl` [Example B55]: the “% Max PAC-1” value was found to be 101.8%. On to `COc1ncc(-c2c(CO)n(Cc3ccc(F)cc3F)c3ccc(OC(F)(F)F)cc23)cn1` [Example B56], for which the IC50 was above 10000 nM and the “% Max PAC-1” value is given as 53.7%. The corresponding values for `OCc1c(-c2ccc(F)nc2)c2cc(OC(F)(F)F)ccc2n1Cc1ccccc1Cl` [Example B57] are 1290 nM and 21.05%. Regarding `OCc1c(-c2ccncc2)c2cc(OC(F)(F)F)ccc2n1Cc1ccc(F)cc1F` [Example B58], the “% Max PAC-1” value came to 102.2%. `COc1ccc2c(-c3ccc(OC)nc3)c(CO)n(Cc3ccccc3Cl)c2c1` [Example B59]: the IC50 was 1350 nM and the “% Max PAC-1” value was 4.31%. The matching figures for `COc1ccc2c(-c3cnc(SC)nc3)c(CO)n(Cc3ccccc3Cl)c2c1` [Example B60]: 4300 nM and 21.33%.

Regarding `CCOc1ccc2c(-c3ccc(OC)nc3)c(CO)n(Cc3ccccc3Cl)c2c1` [Example B61], the IC50 was found to be 3840 nM and the “% Max PAC-1” value was found to be 19.78%. Consider `COc1ccc(-c2c(CO)n(Cc3ccccc3)c3cc(OC(F)(F)F)ccc23)cn1` [Example B62], for which the IC50 is 3710 nM and the “% Max PAC-1” value amounted to 34.32%. For `CCOc1ccc2c(-c3cnc(SC)nc3)c(CO)n(Cc3ccccc3Cl)c2c1` [Example B63], the IC50 turned out to be 2150 nM and the “% Max PAC-1” value amounted to 14.77%. As for `CSc1ncc(-c2c(CO)n(Cc3ccccc3Cl)c3cc(OC(C)C)ccc23)cn1` [Example B64], the IC50 was found to be 1380 nM and the “% Max PAC-1” value came to 18.53%. The corresponding values for `COc1ccc(-c2c(CO)n(Cc3ccccc3Cl)c3cc(OC(F)(F)F)ccc23)cn1` [Example B65] are 966 nM and 12.25%. For the molecule `COc1ccc(-c2c(CO)n(Cc3ccccc3Cl)c3cc(OC(C)C)ccc23)cn1` [Example B66], the “% Max PAC-1” value is reported as 59.45%. The same measure, in the same setting: as for `COc1ccc(-c2c(CO)[nH]c3ccc(OC(F)(F)F)cc23)cn1` [Example B67], the figure is 116.1%. The same measure, in the same setting: as for `COc1ccc(-c2c(CO)n(Cc3csc(-c4ccccc4)n3)c3ccc(OC(F)(F)F)cc23)cn1` [Example B68], the figure is 61.98%. On the same count and under the same terms, next, `COc1ccc(-c2c(CO)n(CC3CSC(c4ccccc4)=N3)c3ccc(OC(F)(F)F)cc23)cn1` (stereo not drawn) [Example B69]: 89.19%. Turning to `COc1ccc(-c2c(COCc3csc(-c4ccccc4)n3)n(Cc3csc(-c4ccccc4)n3)c3ccc(OC(F)(F)F)cc23)cn1` [Example B70], the “% Max PAC-1” value is 61.82%. As for `CSc1ncc(-c2c(CO)n(Cc3ccccc3Cl)c3cc(OC(F)(F)F)ccc23)cn1` [Example B71], the IC50 amounted to 162 nM and the “% Max PAC-1” value came out at 5.57%. Consider `COc1ccc(-c2c(CO)n(Cc3ccccc3)c3cc(OC(C)C)ccc23)cn1` [Example B72], for which the “% Max PAC-1” value stood at 81.76%. Still for that read-out and setting: as for `CSc1ccc(-c2c(CO)n(Cc3ccccc3Cl)c3ccc(OC(F)(F)F)cc23)cc1` [Example B73], the figure is 107.63%; as for `COc1nn2cc(-c3c(CO)n(Cc4csc(-c5ccccc5)n4)c4ccc(OC(F)(F)F)cc34)nc2s1` [Example B74], 38.32%. With `COc1nn2cc(-c3c(CO)n(Cc4ccccc4Cl)c4ccc(OC(F)(F)F)cc34)nc2s1` [Example B75, (1-(2-chlorobenzyl)-3-(2-methoxyimidazo[2,1-b][1,3,4]thiadiazol-6-yl)-5-(trifluoromethoxy)-1H-indol-2-yl)methanol], the half-maximal inhibitory concentration (IC50) is 184 nM and the “% Max PAC-1” value is recorded as 8.40%. `CSc1ccc(-c2c(CO)n(Cc3ccccc3Cl)c3ccc(OC(F)(F)F)cc23)cn1` [Example B76]: the “% Max PAC-1” value is recorded as 79.22%.

The IC50 is the point on the concentration scale where inhibition reaches its midpoint. Low values mean greater potency in that assay, high ones weaker potency in that assay.
